# Measured values published in patent US20240059703A1 (AMGEN INC., priority 2021, published 2024).
# How the values were obtained:
# [1] = system: phosphorylation of extracellular signal-regulated kinase (ERK); details: preclinical studies; cited from earlier work
# [2] = target: T1, KRAS G12C (Homo sapiens (Human), UniProt P01116, C118A/G12C); experiment: 20 h coupled exchange assay; type: biochemical; details: value marked ** in the Avg 2 h column; footnote not given, taken as 20 h pre-incubation
# T1 sequence (P01116 other isoform, or with tags, fused parts or gaps G12C/C118A): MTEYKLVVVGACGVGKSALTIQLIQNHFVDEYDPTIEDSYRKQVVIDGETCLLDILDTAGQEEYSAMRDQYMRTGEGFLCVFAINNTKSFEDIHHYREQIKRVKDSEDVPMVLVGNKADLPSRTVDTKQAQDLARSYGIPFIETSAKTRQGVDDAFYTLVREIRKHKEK
# Protocol: (§1) The term “2 h coupled exchange assay” or “20 h coupled exchange assay” as used herein refers to the assay described in the Section entitled “BIOLOGICAL EVALUATION.”
# [3] = system: MIA PaCa-2 (human pancreatic carcinoma) cells; experiment: Cell Viability Assay (CellTiter-Glo), MIA PaCa-2; type: cell-based; details: Homo sapiens, MIA PaCa-2, 72 h
# Protocol: Serially-diluted compound or DMSO was added to the cells, and plates were incubated at 37° C., 5% CO2 for 72 h. Cell viability was measured using a CellTiter-Glo® Luminescent Cell Viability Assay kit (Promega) according to the manufacturer's protocol. The luminescence signal of treated samples was normalized to DMSO control, and data were analyzed using a 4-parameter logistic model to calculate IC50 values.
# [4] = system: A549 (human lung carcinoma) cells; experiment: Cell Viability Assay (CellTiter-Glo), A549; type: cell-based; details: Homo sapiens, A549, 72 h
# Outline: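 After a 72 h exposure to serial compound dilutions at 37° C, luminescent ATP content was measured with CellTiter-Glo. The cells were A549 or MIA PaCa-2, seeded at 1.67E+04 cells/mL in RPMI 1640 with 10% serum. Signals were normalized to DMSO controls and IC50 fitted with a 4-parameter logistic model.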
# [5] = target: T1, KRAS G12C; experiment: 2 h coupled exchange assay; type: biochemical; details: Avg 2 h Coupled exchange IC50, 2 h compound pre-incubation
# Protocol: as §1
compound,measurement,setting,value
C=CC(=O)N1CCN(c2nc(=O)n(-c3c(C)ccnc3C(C)C)c3nc(-c4c(O)cccc4F)c(F)cc23)[C@@H](C)C1 [AMG 510],inhibition of phosphorylation of extracellular signal-regulated kinase (ERK),[1],inhibited nearly all detectable phosphorylation
"C=CC(=O)N1CC2(CCN(c3nc(-c4c(C)ccc5[nH]ncc45)c4ncn(C)c4n3)C2)C1 [Example 1-20, 1-(6-(9-methyl-6-(5-methyl-1H-indazol-4-yl)-9H-purin-2-yl)-2,6-diazaspiro[3.4]octan-2-yl)-2-propen-1-one]",IC50,[2],4.65 µM
same,IC50,[3],> 5000 nM
same,IC50,[4],> 5 µM
"C=CC(=O)N1CC2(CCN(c3cc(-c4c(C)ccc5[nH]ncc45)c4occ(C)c4n3)C2)C1 [Example 3, 1-(6-(3-Methyl-7-(5-methyl-1H-indazol-4-yl)furo[3,2-b]pyridin-5-yl)-2,6-diazaspiro[3.4]octan-2-yl)prop-2-en-1-one]",IC50,[2],1.38 µM
"C=CC(=O)N1CC2(CCN(c3nc4c(c(-c5c(C)cccc5F)c3C#N)CCC(c3scnc3C)=C4)C2)C1 [Example 23-48, 4-(2-fluoro-6-methylphenyl)-7-(4-methyl-1,3-thiazol-5-yl)-2-(2-(2-propenoyl)-2,6-diazaspiro[3.4]octan-6-yl)-5,6-dihydro-3-quinolinecarbonitrile]",IC50,[5],112 nM
same,IC50,[3],761 nM
same,IC50,[4],3.43 µM
"C=CC(=O)N1CC2(CCN(c3nc4c(c(-c5ncccc5F)c3C#N)CCC(c3scnc3C)=C4)C2)C1 [Example 23-49, 4-(3-fluoro-2-pyridinyl)-7-(4-methyl-1,3-thiazol-5-yl)-2-(2-(2-propenoyl)-2,6-diazaspiro[3.4]octan-6-yl)-5,6-dihydro-3-quinolinecarbonitrile]",IC50,[5],197 nM
same,IC50,[3],670 nM
same,IC50,[4],> 5 µM
"C=CC(=O)N1CC2(CCN(c3nc4c(c(-c5ccccc5F)c3C#N)CCC(c3scnc3COC)=C4)C2)C1 [Example 23-52, 4-(2-fluorophenyl)-7-(4-(methoxymethyl)-1,3-thiazol-5-yl)-2-(2-(2-propenoyl)-2,6-diazaspiro[3.4]octan-6-yl)-5,6-dihydro-3-quinolinecarbonitrile]",IC50,[5],109 nM
same,IC50,[3],779 nM
same,IC50,[4],3.41 µM
"C=CC(=O)N1CC2(CCN(c3nc4c(c(-c5cccc(F)c5OC)c3C#N)CCC(c3scnc3C)=C4)C2)C1 [Example 23-53, 4-(3-fluoro-2-methoxyphenyl)-7-(4-methyl-1,3-thiazol-5-yl)-2-(2-(2-propenoyl)-2,6-diazaspiro[3.4]octan-6-yl)-5,6-dihydro-3-quinolinecarbonitrile]",IC50,[5],391 nM
same,IC50,[3],1230 nM
same,IC50,[4],8.87 µM
"C=CC(=O)N1CC2(CCN(c3nc4c(c(-c5cccc(F)c5O)c3C#N)CCC(c3scnc3C)=C4)C2)C1 [Example 23-54, 4-(3-fluoro-2-hydroxyphenyl)-7-(4-methyl-1,3-thiazol-5-yl)-2-(2-(2-propenoyl)-2,6-diazaspiro[3.4]octan-6-yl)-5,6-dihydro-3-quinolinecarbonitrile]",IC50,[5],112 nM
same,IC50,[3],2110 nM
same,IC50,[4],> 5 µM
"C=CC(=O)N1CC2(CCN(c3nc4c(c(-c5cccc(O)c5)c3C#N)CCC(c3scnc3C)=C4)C2)C1 [Example 23-55, 4-(3-hydroxyphenyl)-7-(4-methyl-1,3-thiazol-5-yl)-2-(2-(2-propenoyl)-2,6-diazaspiro[3.4]octan-6-yl)-5,6-dihydro-3-quinolinecarbonitrile]",IC50,[5],120 nM
same,IC50,[3],2120 nM
same,IC50,[4],> 5 µM
"C=CC(=O)N1CC2(CCN(c3nc4c(c(-c5ccccc5F)c3C#N)CCC(c3scnc3CO)=C4)C2)C1 [Example 23-56, 4-(2-fluorophenyl)-7-(4-(hydroxymethyl)-1,3-thiazol-5-yl)-2-(2-(2-propenoyl)-2,6-diazaspiro[3.4]octan-6-yl)-5,6-dihydro-3-quinolinecarbonitrile]",IC50,[5],128 nM
same,IC50,[3],487 nM
same,IC50,[4],> 5 µM
"C=CC(=O)N1CC2(CCN(c3nc4c(c(-c5ncccc5F)c3C#N)CCC(c3c(C)cnn3C)=C4)C2)C1 [Example 23-58, 7-(1,4-dimethyl-1H-pyrazol-5-yl)-4-(3-fluoro-2-pyridinyl)-2-(2-(2-propenoyl)-2,6-diazaspiro[3.4]octan-6-yl)-5,6-dihydro-3-quinolinecarbonitrile]",IC50,[5],841 nM
same,IC50,[3],2060 nM
same,IC50,[4],10.7 µM
"C=CC(=O)N1CC2(CCN(c3nc4c(c(-c5ncccc5F)c3C#N)CC[C@H](c3scnc3C)C4)C2)C1 [Example 23-60, (7S)-4-(3-fluoro-2-pyridinyl)-7-(4-methyl-1,3-thiazol-5-yl)-2-(2-(2-propenoyl)-2,6-diazaspiro[3.4]octan-6-yl)-5,6,7,8-tetrahydro-3-quinolinecarbonitrile]",IC50,[5],24 nM
same,IC50,[3],47 nM
same,IC50,[4],14 µM
"C=CC(=O)N1CC2(CCN(c3nc4c(c(-c5cc(C(F)F)ccc5Cl)c3C#N)CCN(c3scnc3C)C4)C2)C1 [Example 23-61, 4-(2-chloro-5-(difluoromethyl)phenyl)-7-(4-methyl-1,3-thiazol-5-yl)-2-(2-(2-propenoyl)-2,6-diazaspiro[3.4]octan-6-yl)-5,6,7,8-tetrahydro-1,7-naphthyridine-3-carbonitrile]",IC50,[5],103 nM
same,IC50,[3],1910 nM
same,IC50,[4],12.4 µM
"C=CC(=O)N1CC2(CCN(c3nc4cc(OC)ccc4c(-c4c(C)ccc5[nH]ncc45)c3F)C2)C1 [Example 27-1, 1-(6-(3-fluoro-7-methoxy-4-(5-methyl-1H-indazol-4-yl)-2-quinolinyl)-2,6-diazaspiro[3.4]octan-2-yl)-2-propen-1-one]",IC50,[5],134 nM
same,IC50,[3],996 nM
same,IC50,[4],> 5 µM
"C=CC(=O)N1CC2(CCN(c3nc4ccccc4c(-c4c(C)ccc5[nH]ncc45)c3Cl)C2)C1 [Example 27-2, 1-(6-(3-chloro-4-(5-methyl-1H-indazol-4-yl)-2-quinolinyl)-2,6-diazaspiro[3.4]octan-2-yl)-2-propen-1-one]",IC50,[5],121 nM
same,IC50,[3],2640 nM
same,IC50,[4],> 5 µM
"C=CC(=O)N1CC2(CCN(c3cc4c(c(-c5c(C)ccc6[nH]ncc56)c3Cl)OCCC4)C2)C1 [Example 31-1, 1-(6-(7-chloro-8-(5-methyl-1H-indazol-4-yl)-3,4-dihydro-2H-chromen-6-yl)-2,6-diazaspiro[3.4]octan-2-yl)-2-propen-1-one]",IC50,[5],76 nM
same,IC50,[3],34 nM
same,IC50,[4],> 5 µM
"C=CC(=O)N1CC2(CCN(c3nc4c(c(-c5ccccc5F)c3C#N)CCN(c3nccn3C)C4)C2)C1 [Example 34-1, 4-(2-fluorophenyl)-7-(1-methyl-1H-imidazol-2-yl)-2-(2-(2-propenoyl)-2,6-diazaspiro[3.4]octan-6-yl)-5,6,7,8-tetrahydro-1,7-naphthyridine-3-carbonitrile]",IC50,[5],814 nM
same,IC50,[3],3510 nM
same,IC50,[4],14.1 µM
"C=CC(=O)N1CC2(CCN(c3nc4c(c(-c5cccc(O)c5F)c3C#N)CCN(c3scnc3C)C4)C2)C1 [Example 35-1, 4-(2-fluoro-3-hydroxyphenyl)-7-(4-methyl-1,3-thiazol-5-yl)-2-(2-(2-propenoyl)-2,6-diazaspiro[3.4]octan-6-yl)-5,6,7,8-tetrahydro-1,7-naphthyridine-3-carbonitrile]",IC50,[5],67 nM
same,IC50,[3],> 5000 nM
same,IC50,[4],> 5 µM
"C=CC(=O)N1CC2(CCN(c3nc4c(c(-c5c(C)ccc6cnn(C)c56)c3C)CCN(C3(C)COC3)C4)C2)C1 [Example 36-1, 1-(6-(4-(1,6-dimethyl-1H-indazol-7-yl)-3-methyl-7-(3-methyl-3-oxetanyl)-5,6,7,8-tetrahydro-1,7-naphthyridin-2-yl)-2,6-diazaspiro[3.4]octan-2-yl)-2-propen-1-one]",IC50,[5],589 nM
same,IC50,[3],335 nM
same,IC50,[4],14.6 µM
"C=CC(=O)N1CC2(CCN(c3nc4c(c(-c5c(C)ccc(OC)c5N)c3C#N)COC(C)(C)C4)C2)C1 [Example 37-1, 4-(2-amino-3-methoxy-6-methylphenyl)-7,7-dimethyl-2-(2-(2-propenoyl)-2,6-diazaspiro[3.4]octan-6-yl)-7,8-dihydro-5H-pyrano[4,3-b]pyridine-3-carbonitrile]",IC50,[5],214 nM
same,IC50,[3],96 nM
same,IC50,[4],> 25 µM
"C=CC(=O)N1CC2(CCN(c3nc4c(c(-c5cc(N)cc6ccccc56)c3C#N)COC(C)(C)C4)C2)C1 [Example 38-1, 4-(3-amino-1-naphthalenyl)-7,7-dimethyl-2-(2-(2-propenoyl)-2,6-diazaspiro[3.4]octan-6-yl)-7,8-dihydro-5H-pyrano[4,3-b]pyridine-3-carbonitrile]",IC50,[5],407 nM
same,IC50,[3],348 nM
same,IC50,[4],12.7 µM
